Read-outs that look alike come from different tables or passages of the source.
What was measured:
[1] = biological target: GDP-bound KRAS protein (aa 1-169), containing both G12C and C118A amino acid substitutions (Homo sapiens, UniProt P01116, C118A/G12C); assay: Coupled nucleotide exchange assay (SOS-mediated, AlphaScreen); assay type: biochemical
Experimental: Coupled Nucleotide Exchange Assay:
For all subsequent steps, DTT was added to the reaction buffer at a final concentration of 1 mM. […] The assay plates were then read on a plate reader measuring luminescence signal. Signal intensity of compound-containing wells were normalized to DMSO control, and data were analyzed using a 4-parameter logistic model to calculate IC50 values.

[2] = tested on: MIA PaCa-2 (human pancreatic carcinoma) cells; assay: Cell viability assay (CellTiter-Glo), MIA PaCa-2; assay type: cell-based; details: 72 h
Experimental: (§1) MIA PaCa-2 (human pancreatic carcinoma; ATCC CRL-1420) or A549 (human lung carcinoma; ATCC CCL-185) cells were cultured in RPMI 1640 medium containing 10% fetal bovine serum and 1× penicillin/streptomycin/L-glutamine. Cells were seeded in 384-well plates at a density of 1.67E+04 cells/mL and incubated at 37° C., 5% CO2, overnight. Serially-diluted compound or DMSO was added to the cells, and plates were incubated at 37° C., 5% CO2 for 72 h. Cell viability was measured using a CellTiter-Glo® Luminescent Cell Viability Assay kit (Promega) according to the manufacturer's protocol. The luminescence signal of treated samples was normalized to DMSO control, and data were analyzed using a 4-parameter logistic model to calculate IC50 values.

[3] = tested on: A549 (human lung carcinoma) cells; assay: Cell viability assay (CellTiter-Glo), A549; assay type: cell-based; details: 72 h
Experimental: as §1

[4] = tested on: extracellular signal-regulated kinase (ERK); details: preclinical studies; cited from earlier work
[5] = 2 h compound pre-incubation, read-out: Avg 2 h Coupled exchange IC50

Chain of GDP-bound KRAS protein (aa 1-169), containing both G12C and C118A amino acid substitutions (P01116 1-169 isoform P01116-2 G12C/C118A): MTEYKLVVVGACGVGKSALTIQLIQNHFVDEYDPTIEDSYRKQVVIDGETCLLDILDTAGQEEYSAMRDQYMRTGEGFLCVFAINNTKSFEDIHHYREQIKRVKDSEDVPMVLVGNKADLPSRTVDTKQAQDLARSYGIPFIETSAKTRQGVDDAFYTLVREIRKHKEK

SMILES | IC50 ([1]; 20 h compound pre-incubation (values marked * in Table 6), read-out: Avg 20 h Coupled exchange IC50) [µM] | IC50 [2] [µM] | IC50 [3] [µM] | inhibition of ERK phosphorylation [4] | IC50 [1, 5] [µM]
C=CC(=O)N1CC2(CCN(c3nc4c(c(N[C@H](CC(=O)NC)CC(C)C)n3)COC4)C2)C1 [Example 1-13, (3S)-N,5-dimethyl-3-((2-(2-(2-propenoyl)-2,6-diazaspiro[3.4]octan-6-yl)-5,7-dihydrofuro[3,4-d]pyrimidin-4-yl)amino)hexanamide] | 5.85 | > 5 | > 5 | – | –
C=CC(=O)N1CCN(c2nc(=O)n(-c3c(C)ccnc3C(C)C)c3nc(-c4c(O)cccc4F)c(F)cc23)[C@@H](C)C1 [AMG 510] | – | – | – | inhibited nearly all detectable phosphorylation | –
C=CC(=O)N1CC2(CCN(c3nc(N[C@H](CC(=O)NC)CC(C)C)c4ccc(C(F)(F)F)cc4n3)C2)C1 [Example 1-35, (3S)-N,5-dimethyl-3-((2-(2-(2-propenoyl)-2,6-diazaspiro[3.4]octan-6-yl)-7-(trifluoromethyl)-4-quinazolinyl)amino)hexanamide] | – | 0.179 | 10.5 | – | 0.142
C=CC(=O)N1CC2(CCN(c3nc4c(c(N[C@H](CC(=O)NC)CC(C)C)n3)CCC(C)C4)C2)C1 (stereo partly drawn) [Example 1-3, (3S)-N,5-dimethyl-3-((7-methyl-2-(2-(2-propenoyl)-2,6-diazaspiro[3.4]octan-6-yl)-5,6,7,8-tetrahydro-4-quinazolinyl)amino)hexanamide] | – | 0.217 | 32.6 | – | 0.216
C=CC(=O)N1CC2(CCN(c3nc(N[C@H](CC(=O)NC)CC(C)C)c4ncc(OC)cc4n3)C2)C1 [Example 1-42, (3S)-3-((7-methoxy-2-(2-(2-propenoyl)-2,6-diazaspiro[3.4]octan-6-yl)pyrido[3,2-d]pyrimidin-4-yl)amino)-N,5-dimethylhexanamide] | – | 0.296 | > 5 | – | 0.022
C=CC(=O)N1CC2(CCN(c3nc(N[C@H](CC(=O)NC)CC(C)C)c4ccncc4n3)C2)C1 [Example 1-56] | – | > 5 | > 25 | – | 4.84
C=CC(=O)N1CC2(CCN(c3nc(N[C@H](CC(=O)NC)CC(C)C)c4ccc(C(C)C)cc4n3)C2)C1 [Example 1-20, (3S)-N,5-dimethyl-3-((7-(2-propanyl)-2-(2-(2-propenoyl)-2,6-diazaspiro[3.4]octan-6-yl)-4-quinazolinyl)amino)hexanamide] | – | 0.075 | 21.6 | – | 0.084
C=CC(=O)N1CC2(CCN(c3nc(N[C@H](CC(=O)NC)CC(C)C)c4c(n3)[C@@H](C)CCC4)C2)C1 [Example 1-15, (3S)-N,5-dimethyl-3-(((8S)-8-methyl-2-(2-(2-propenoyl)-2,6-diazaspiro[3.4]octan-6-yl)-5,6,7,8-tetrahydro-4-quinazolinyl)amino)hexanamide] | – | 2.26 | > 5 | – | 4.42
C=CC(=O)N1CC2(CCN(c3nc(N[C@H](CC(=O)NC)CC(C)C)c4ncccc4n3)C2)C1 [Example 1-37, (3S)-N,5-dimethyl-3-((2-(2-(2-propenoyl)-2,6-diazaspiro[3.4]octan-6-yl)pyrido[3,2-d]pyrimidin-4-yl)amino)hexanamide] | – | 0.632 | > 25 | – | 0.743
C=CC(=O)N1CC2(CCN(c3nc4c(c(N[C@H](CC(=O)NC)CC(C)C)n3)CCC4)C2)C1 [Example 1-4, (3S)-N,5-dimethyl-3-((2-(2-(2-propenoyl)-2,6-diazaspiro[3.4]octan-6-yl)-6,7-dihydro-5H-cyclopenta[d]pyrimidin-4-yl)amino)hexanamide] | – | 2.59 | > 5 | – | 2.37
C=CC(=O)N1CC2(CCN(c3nc4c(c(N[C@H](Cc5nnc[nH]5)CC(C)C)n3)CCCC4)C2)C1 [Example 1-19, 1-(6-(4-(((2S)-4-methyl-1-(4H-1,2,4-triazol-3-yl)-2-pentanyl)amino)-5,6,7,8-tetrahydro-2-quinazolinyl)-2,6-diazaspiro[3.4]octan-2-yl)-2-propen-1-one] | – | > 5 | > 5 | – | 4.17
C=CC(=O)N1CC2(CCN(c3nc4c(c(N[C@H](Cc5nnc(C)s5)CC(C)C)n3)CCC(C)(C)C4)C2)C1 [Example 1-51, 1-(6-(7,7-dimethyl-4-(((2S)-4-methyl-1-(5-methyl-1,3,4-thiadiazol-2-yl)-2-pentanyl)amino)-5,6,7,8-tetrahydro-2-quinazolinyl)-2,6-diazaspiro[3.4]octan-2-yl)-2-propen-1-one] | – | 3.54 | > 5 | – | 0.05
C=CC(=O)N1CC2(CCN(c3nc4c(c(N[C@@H](CC(C)C)Cn5cncn5)n3)CCC(C)(C)C4)C2)C1 [Example 1-45, 1-(6-(7,7-dimethyl-4-(((2S)-4-methyl-1-(1H-1,2,4-triazol-1-yl)-2-pentanyl)amino)-5,6,7,8-tetrahydro-2-quinazolinyl)-2,6-diazaspiro[3.4]octan-2-yl)-2-propen-1-one] | – | 0.985 | > 25 | – | 1.51
C=CC(=O)N1CC2(CCN(c3nc(N[C@H](CC(=O)NC)CC(C)C)c4ccc(-c5nccs5)cc4n3)C2)C1 [Example 1-59, (3S)-N,5-dimethyl-3-((2-(2-(2-propenoyl)-2,6-diazaspiro[3.4]octan-6-yl)-7-(1,3-thiazol-2-yl)-4-quinazolinyl)amino)hexanamide] | – | 0.016 | 7.86 | – | 0.01
C=CC(=O)N1CC2(CCN(c3nc(N[C@H](CC(=O)NC)CC(C)C)c4ncc(-c5nccs5)cc4n3)C2)C1 [Example 1-36, (3S)-N,5-dimethyl-3-((2-(2-(2-propenoyl)-2,6-diazaspiro[3.4]octan-6-yl)-7-(1,3-thiazol-2-yl)pyrido[3,2-d]pyrimidin-4-yl)amino)hexanamide] | – | 0.379 | > 5 | – | 0.023
C=CC(=O)N1CC2(CCN(c3nc4c(c(N[C@H](Cc5c[nH]nn5)CC(C)C)n3)CCC(C)(C)C4)C2)C1 [Example 1-55, 1-(6-(7,7-dimethyl-4-(((2S)-4-methyl-1-(1H-1,2,3-triazol-4-yl)-2-pentanyl)amino)-5,6,7,8-tetrahydro-2-quinazolinyl)-2,6-diazaspiro[3.4]octan-2-yl)-2-propen-1-one] | – | 1.27 | > 5 | – | 0.057
C=CC(=O)N1CC2(C[C@@H](CO)N(c3nc4c(c(N[C@H](CC(=O)NC)CC(C)C)n3)CCCC4)C2)C1 (single isomer, unassigned) [Example 1-24-2] | – | > 25 | > 25 | – | 59.1
C=CC(=O)N1CC2(CCN(c3nc4c(c(N[C@H](CC(=O)NC)CC(C)C)n3)CC(C)CC4)C2)C1 (stereo partly drawn) [Example 1-33, (3S)-N,5-dimethyl-3-((6-methyl-2-(2-(2-propenoyl)-2,6-diazaspiro[3.4]octan-6-yl)-5,6,7,8-tetrahydro-4-quinazolinyl)amino)hexanamide] | – | 0.35 | > 25 | – | 0.446

Reference: patent US20230406860A1, “HETEROCYCLIC SPIRO COMPOUNDS AND METHODS OF USE” (AMGEN INC., priority 2020, published 2023)
